Assay results from article PMC6504873, “High-throughput screening of the Plasmodium falciparum cGMP-dependent protein kinase identified a thiazole scaffold which kills erythrocytic and sexual stage parasites” (Scientific Reports, 2019).
≈ marks a conversion by molar mass, not a printed value.

What was measured:
[1] = Aqueous kinetic solubility assay (CAD); assay type: physicochemical; settings: several values in a cell = replicates
Protocol: […] of 10 mM DMSO compound solution is diluted to 100 μl with pH7.4 phosphate buffered saline, equilibrated for 1 hour at room temperature and filtered through Millipore MultiscreenHTS-PCF filter plates (MSSL BPC). The filtrate is quantified by suitably calibrated Charged Aerosol Detector[56].

[2] = system: HepG2 cells; experiment: Cytotoxicity assay (CellTiter-Glo); assay type: cell-based; settings: Homo sapiens, HepG2, read-out: HepG2 (μM)
Protocol: Cytotoxicity assays were performed on HepG2 cells as previously described. HepG2 cells were removed from a T-175 TC flask using 5 mL Eagle’s MEM (containing 10% FBS, 1% NEAA, 1% penicillin/streptomycin) and dispersed in the medium. Seeding density was checked to ensure that new mono-layers were not more than 50% confluent at the time of harvesting. Cells were added to 500 mL of the same medium at a final density of 1.2 × 10^5 cells/mL. They were then dispensed (25 μL, about 3,000 cells per well) into 384-well clear-bottom plates using a Multidrop Combi dispenser. Test compounds (250 nL) were dispensed into the plates with an EchoH liquid handler prior to addition of the cells. Plates were incubated for 48 h at 37 °C, 5% CO2. After incubation, plates were equilibrated at room temperature for 30 minutes before proceeding to develop the luminescent signal. The CellTiter-GloH Reagent was allowed to equilibrate at room temperature for 30 minutes and added to the plates (25 μL per well) using a Multidrop Combi dispenser. Plates were left for 10 minutes at room temperature for stabilization and then read using a Perkin Elmer ViewLux.

[3] = target: PI3KD (Homo sapiens, UniProt O00329); experiment: Preliminary safety test on human PI3KD kinase; assay type: biochemical
[4] = target: T1, WT PfPKG (Plasmodium falciparum, UniProt Q8I719); experiment: Kinase Glo enzymatic assay, recombinant WT PfPKG; assay type: biochemical, P. falciparum; settings: WT PfPKG (μM), recombinant WT PfPKG
T1 construct: recombinant full length wild type (WT) PfPKG; His6 (N); host or cells: E. coli BL21
Protocol: To identify new PKG inhibitor scaffolds, the 1.7 million GlaxoSmithKline Full Diversity collection was tested at a single final concentration of 10 μM against recombinant full length wild type (WT) PfPKG using a Kinase Glo-based assay (Promega). The results gave a robust Z′ mean value of 0.85. At an average statistical cut-off of 30%, 20,174 primary hits were identified with an overall hit rate of 1%. Fresh samples of these primary hits were tested in duplicate against WT PfPKG and also against human PKGIα (HuPKGIα) (Supplementary Fig. 1) at a final concentration of 10 μM (confirmation step).
(§1) Protein production was outsourced to the Division of Signal Transduction Therapy, University of Dundee. Briefly, the pTRChis expression vectors (Invitrogen) containing an N-terminally His6-tagged PfPKG wildtype and T618Q were used to transform BL21 cells (protocol adapted from[23]). The cells were grown at 37 °C until the OD600 was 0.4–0.6 then the temperature was reduced to 15 °C and the cells were induced with 250 µM IPTG and grown for a further 16–18 hours before harvesting. The His6-PfPKG was purified on Cobalt agarose followed by gel filtration and the protein was dialysed into 25 mM Hepes pH 7.5, 0.1 mM EGTA, 150 mM NaCl, 50% glycerol and 2 mM DTT.
(§2) Initial optimization of the PKG assay was performed manually in 384-well plates and analysed with GraFit 7. The buffer for all assays was 25 mM HEPES pH 7.3 (GIBCO), 10 mM MgCl2 (Sigma), 2 mM DTT (Sigma), 0.01 mM cGMP (Sigma), 0.1 mg/ml BSA (Ambion). Enzymatic activity was tested using a luminescence-based kit (Promega KinaseGlo). Addition of the first reagent depletes the unused ATP and addition of the second reagent converts ADP (product of the kinase reaction) to ATP, which is then measured through a luciferin/luciferase reaction. The amount of luminescence is directly proportional to ATP turnover by the kinase. The kit was chosen because it can be miniaturized to small volumes (i.e. 4 µl) in 1536-well plates, for use in HTS.
(§3) We used PKA peptide substrate (SCP0212, Sigma-Aldrich) for WT and TQ PfPKG, dissolved in milliQ water at a final concentration of 5 mM, and Long S6 peptide substrate (produced at the University of Dundee, sequence […]) for HuPKGIα, dissolved in water at a final concentration of 30 mM.
(§4) We calculated the Michaelis-Menten (Km) constant for ATP and peptide substrate (PKA or Long S6) for all enzymes using GraphPad Prism (Supplementary Figs 2 and 3 and Supplementary Table 3). In order to identify different types of PKG inhibitors, including ATP competitive or non-competitive inhibitors, as well as inhibitors that bind to the peptide substrate pocket, we performed all assays using ATP and peptide substrate at a concentration equal to the Km. We also determined enzyme activity by calculating ATP turnover (Kcat) over the Km (Supplementary Table 3). The Kcat was calculated as (Vmax*slope)/[E] where Vmax is the maximum velocity and [E] is the concentration of the enzyme.
(§5) The plates containing the compounds were prepared at GSK in Upper Providence or Stevenage. Compounds were tested at a single final concentration of 10 µM or in a dose response with a range of concentrations starting from 100 μM to 1.6 nM (1 in 3 serial dilutions). Compounds were dispensed in the plates at the required concentration in a 40 nl volume. All plates (1536-well white Greiner) contained 40 nl of DMSO in lanes 11 and 12 (control 1, 100% enzyme activity) and were empty in lanes 35 and 36 (control 2, 0% enzyme activity). The plates were removed from −20 °C 1 hour before starting the assay. Using a Multidrop Combi dispenser (Thermo Scientific), 2 µl of the buffer containing ATP and the substrate were added to all wells then 2 µl of buffer only were added to column 35 and 36. Finally 2 µl of buffer containing the enzyme were dispensed in all the plate wells except for lanes 35 and 36. […]

[5] = AM_Perm (artificial membrane permeability); assay type: in vitro ADME; settings: PAMPA
[6] = target: T2, TQ PfPKG (PfPKG_T618Q) (Plasmodium falciparum, UniProt Q8I719, T618Q); experiment: Kinase Glo enzymatic assay, gatekeeper mutant TQ PfPKG; assay type: biochemical, P. falciparum
T2 construct: His6 (N); host or cells: E. coli BL21
Protocol: Taking advantage of the availability of more than 3,000 thiazole derivatives among the GSK compound collection, cluster 3 was thoroughly investigated for potent and selective inhibitors of WT PfPKG. […] We explored the binding mode by also testing compounds on the gatekeeper mutant enzyme TQ PfPKG. […] These two time points were chosen to give an indication of the speed of kill of the compounds. […] A preliminary safety test was performed on human AuroraB and LCK kinases which often underpin toxicity issues. […] Further assays for compound characterization included determination of solubility and cytotoxicity (HepG2 inhibition). Thiazoles have been previously identified as human BRaf inhibitors that are used to treat melanoma.
as §1, §2, §3, §4
as §5, with “36.” for “36. Finally 2 µl of buffer containing the enzyme were dispensed in all the plate wells except for lanes 35 and 36.”

[7] = PFI; assay type: physicochemical
Protocol: Dose response assays were performed in duplicate on WT PfPKG, HuPKGIα and a mock assay performed in the absence of enzyme (the counterscreen). Comparison of the PfPKG and HuPKGIα IC50 values gave information on selectivity and the counterscreen identified luminescent false positive compounds (see Materials and Methods). Cytotoxicity assays were also performed using a human hepatoma cell line (HepG2)[30]. […] This set of compounds was clustered by similarity using a complete-linkage algorithm and a threshold of 0.55[31]. A total of 79 clusters and 54 singletons were obtained.

[8] = ChromlogD (lipophilicity)
[9] = system: P. falciparum; set-up: method as in PMID 28446690; settings: P. falciparum mouse model ref 44; cited from earlier work
[10] = system: P. berghei; set-up: method as in PMID 28446690; settings: P. berghei mouse model ref 44; cited from earlier work
[11] = set-up: method as in PMID 24958809; settings: in the clinic ref 39; cited from earlier work

PI3KD, sequence (O00329 whole entry): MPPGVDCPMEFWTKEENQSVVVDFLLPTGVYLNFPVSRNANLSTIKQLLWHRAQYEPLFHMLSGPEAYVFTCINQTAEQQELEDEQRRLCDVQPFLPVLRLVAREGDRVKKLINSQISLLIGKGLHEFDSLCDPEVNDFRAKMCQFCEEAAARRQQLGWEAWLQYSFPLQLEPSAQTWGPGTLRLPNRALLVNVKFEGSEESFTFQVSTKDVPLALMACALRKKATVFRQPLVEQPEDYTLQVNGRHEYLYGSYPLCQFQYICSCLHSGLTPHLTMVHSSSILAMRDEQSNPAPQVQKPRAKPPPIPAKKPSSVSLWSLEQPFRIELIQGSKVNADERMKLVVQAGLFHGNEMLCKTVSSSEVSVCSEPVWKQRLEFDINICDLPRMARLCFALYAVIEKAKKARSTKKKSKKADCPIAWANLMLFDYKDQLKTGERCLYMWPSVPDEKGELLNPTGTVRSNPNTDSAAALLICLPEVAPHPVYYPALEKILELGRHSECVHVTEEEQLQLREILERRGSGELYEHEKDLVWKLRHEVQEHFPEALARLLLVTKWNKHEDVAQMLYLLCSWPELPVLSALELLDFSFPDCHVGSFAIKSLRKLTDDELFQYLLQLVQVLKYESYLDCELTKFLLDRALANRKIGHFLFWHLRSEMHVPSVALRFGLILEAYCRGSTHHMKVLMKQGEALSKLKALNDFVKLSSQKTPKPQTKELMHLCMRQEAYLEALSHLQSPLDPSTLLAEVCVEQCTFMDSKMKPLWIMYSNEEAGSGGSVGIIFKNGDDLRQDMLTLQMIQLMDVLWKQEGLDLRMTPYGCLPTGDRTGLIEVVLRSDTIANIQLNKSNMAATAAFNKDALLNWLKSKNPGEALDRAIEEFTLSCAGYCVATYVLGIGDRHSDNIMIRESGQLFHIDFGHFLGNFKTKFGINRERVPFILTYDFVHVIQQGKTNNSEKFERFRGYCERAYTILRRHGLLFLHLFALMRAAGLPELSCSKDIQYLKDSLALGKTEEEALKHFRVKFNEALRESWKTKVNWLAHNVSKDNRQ
PI3KD, sequence (P27986 whole entry partner): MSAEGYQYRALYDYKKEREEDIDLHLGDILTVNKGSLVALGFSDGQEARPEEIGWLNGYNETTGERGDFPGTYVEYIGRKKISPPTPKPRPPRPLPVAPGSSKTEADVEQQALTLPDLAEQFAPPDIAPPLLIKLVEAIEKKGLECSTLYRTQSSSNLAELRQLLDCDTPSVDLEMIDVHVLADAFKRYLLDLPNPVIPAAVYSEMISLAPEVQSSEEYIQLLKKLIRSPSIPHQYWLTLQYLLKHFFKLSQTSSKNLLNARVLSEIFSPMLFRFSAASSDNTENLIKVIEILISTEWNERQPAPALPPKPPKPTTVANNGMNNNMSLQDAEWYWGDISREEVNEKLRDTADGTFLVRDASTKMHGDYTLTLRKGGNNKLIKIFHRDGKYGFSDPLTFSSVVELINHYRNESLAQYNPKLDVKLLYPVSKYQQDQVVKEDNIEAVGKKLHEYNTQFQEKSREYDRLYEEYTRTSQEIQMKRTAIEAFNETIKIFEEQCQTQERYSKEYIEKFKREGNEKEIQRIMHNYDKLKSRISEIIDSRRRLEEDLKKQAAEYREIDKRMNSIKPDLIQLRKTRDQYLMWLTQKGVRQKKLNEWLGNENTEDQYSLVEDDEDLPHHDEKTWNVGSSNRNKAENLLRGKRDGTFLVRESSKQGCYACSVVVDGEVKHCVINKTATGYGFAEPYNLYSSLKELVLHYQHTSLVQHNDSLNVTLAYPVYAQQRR
T1 sequence (Q8I719 whole entry): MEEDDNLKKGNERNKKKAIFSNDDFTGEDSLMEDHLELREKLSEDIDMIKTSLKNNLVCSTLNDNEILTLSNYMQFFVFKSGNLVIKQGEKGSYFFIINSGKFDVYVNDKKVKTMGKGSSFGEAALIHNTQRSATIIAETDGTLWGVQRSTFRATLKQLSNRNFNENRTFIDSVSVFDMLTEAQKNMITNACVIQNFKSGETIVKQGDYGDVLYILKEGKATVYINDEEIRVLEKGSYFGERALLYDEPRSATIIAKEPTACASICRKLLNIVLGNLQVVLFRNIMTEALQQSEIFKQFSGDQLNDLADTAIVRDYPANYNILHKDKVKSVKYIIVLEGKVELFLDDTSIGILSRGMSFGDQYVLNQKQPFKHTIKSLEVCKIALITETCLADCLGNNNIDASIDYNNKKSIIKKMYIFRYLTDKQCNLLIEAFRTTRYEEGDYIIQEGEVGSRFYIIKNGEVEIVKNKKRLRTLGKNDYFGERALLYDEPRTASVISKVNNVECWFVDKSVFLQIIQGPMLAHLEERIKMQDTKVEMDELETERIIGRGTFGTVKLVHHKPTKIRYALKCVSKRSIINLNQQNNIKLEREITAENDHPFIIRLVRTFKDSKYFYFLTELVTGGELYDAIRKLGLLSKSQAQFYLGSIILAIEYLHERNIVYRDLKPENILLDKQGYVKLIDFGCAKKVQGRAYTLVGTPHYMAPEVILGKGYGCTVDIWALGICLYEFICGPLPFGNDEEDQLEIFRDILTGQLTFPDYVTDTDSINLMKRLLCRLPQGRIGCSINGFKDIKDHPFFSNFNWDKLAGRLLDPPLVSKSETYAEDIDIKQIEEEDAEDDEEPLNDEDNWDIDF
T2 sequence (Q8I719 whole entry T618Q): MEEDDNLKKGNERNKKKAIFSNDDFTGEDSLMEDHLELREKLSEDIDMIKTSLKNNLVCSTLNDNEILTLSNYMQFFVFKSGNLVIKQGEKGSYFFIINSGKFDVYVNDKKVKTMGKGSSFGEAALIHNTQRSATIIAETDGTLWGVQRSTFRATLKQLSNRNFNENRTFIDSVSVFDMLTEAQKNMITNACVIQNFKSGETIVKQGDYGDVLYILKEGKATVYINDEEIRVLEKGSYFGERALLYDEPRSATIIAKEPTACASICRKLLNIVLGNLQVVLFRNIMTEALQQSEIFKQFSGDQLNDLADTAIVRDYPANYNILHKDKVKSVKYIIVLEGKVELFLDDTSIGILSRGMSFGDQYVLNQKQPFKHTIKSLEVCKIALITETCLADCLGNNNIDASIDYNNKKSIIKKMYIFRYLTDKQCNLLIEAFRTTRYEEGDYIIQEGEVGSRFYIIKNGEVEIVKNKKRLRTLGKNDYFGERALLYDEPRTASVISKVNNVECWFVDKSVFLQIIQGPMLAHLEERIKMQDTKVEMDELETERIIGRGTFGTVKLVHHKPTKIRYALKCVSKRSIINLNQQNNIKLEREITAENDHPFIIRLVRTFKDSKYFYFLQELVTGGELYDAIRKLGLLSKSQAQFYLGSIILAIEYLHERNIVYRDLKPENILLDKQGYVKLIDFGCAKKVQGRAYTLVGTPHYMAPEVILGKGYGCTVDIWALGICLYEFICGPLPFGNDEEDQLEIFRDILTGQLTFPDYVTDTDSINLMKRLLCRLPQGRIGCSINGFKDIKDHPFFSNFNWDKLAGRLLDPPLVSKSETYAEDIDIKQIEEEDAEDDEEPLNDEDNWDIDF

## Nc1nccc(-c2c(-c3ccc(F)cc3)ncn2C2CCNCC2)n1 [Compound 1]
[1]; pH 7.4, aqueous buffer, kinetic from dmso stock
  solubility at 1 h: 155 µM (≈ 52.5 µg/mL)
[1]
  solubility at 1 h: 291 µM (≈ 98.5 µg/mL)
[2]
  IC50: > 100 µM
[3]
  IC50: > 50.1 µM
[4]
  IC50: 0.066 µM
[5]
  AM Perm: 9.1 ×10⁻⁶ cm/s
[6]
  IC50: > 100 µM
[7]
  PFI: 3.8
[8]
  chromatographic logD: 0.8

## CS(=O)(=O)c1ccc(-c2cnc(N)c(-c3ccc(C(F)(F)F)nc3)c2)cc1 [MMV390048]
[9]
  ED90: 0.57 mg/kg
[10]
  ED90: 1.1 mg/kg

## CC(C)(C)c1nc(-c2cccc(NS(=O)(=O)c3c(F)cccc3F)c2F)c(-c2ccnc(N)n2)s1 [dabrafenib]
[11]
  patients experiencing severe adverse events: 24%
